According to paper PMC8596838, “Xylose‐Configured Cyclophellitols as Selective Inhibitors for Glucocerebrosidase” (Chembiochem, 2021):
Where two headings read alike, the source gives them in different places.

Legend:
GBA2 = target: T1, GBA2 (Homo sapiens, UniProt Q9HCG7); assay: Fluorogenic substrate enzymatic assay, lysate of GBA/GBA2 KO HEK293T cells overexpressing GBA2; type: biochemical; conditions: for (Ratio) GBA2/GBA / GBA2/GBA ratio, 3 h: IC50 ratio; for increase in GBA:GBA2 selectivity window compared to the conduritol analogue (13 or 14): IC50 ratio GBA2/GBA
T1 construct: expressed in transfected cells; host or cells: HEK293T (GBA/GBA2 KO background for the fluorogenic assay; endogenous-GBA background with GBA2 and GBA3 overexpressed for ABPP and intact-cell assays)
T1 sequence (Q9HCG7 1-927): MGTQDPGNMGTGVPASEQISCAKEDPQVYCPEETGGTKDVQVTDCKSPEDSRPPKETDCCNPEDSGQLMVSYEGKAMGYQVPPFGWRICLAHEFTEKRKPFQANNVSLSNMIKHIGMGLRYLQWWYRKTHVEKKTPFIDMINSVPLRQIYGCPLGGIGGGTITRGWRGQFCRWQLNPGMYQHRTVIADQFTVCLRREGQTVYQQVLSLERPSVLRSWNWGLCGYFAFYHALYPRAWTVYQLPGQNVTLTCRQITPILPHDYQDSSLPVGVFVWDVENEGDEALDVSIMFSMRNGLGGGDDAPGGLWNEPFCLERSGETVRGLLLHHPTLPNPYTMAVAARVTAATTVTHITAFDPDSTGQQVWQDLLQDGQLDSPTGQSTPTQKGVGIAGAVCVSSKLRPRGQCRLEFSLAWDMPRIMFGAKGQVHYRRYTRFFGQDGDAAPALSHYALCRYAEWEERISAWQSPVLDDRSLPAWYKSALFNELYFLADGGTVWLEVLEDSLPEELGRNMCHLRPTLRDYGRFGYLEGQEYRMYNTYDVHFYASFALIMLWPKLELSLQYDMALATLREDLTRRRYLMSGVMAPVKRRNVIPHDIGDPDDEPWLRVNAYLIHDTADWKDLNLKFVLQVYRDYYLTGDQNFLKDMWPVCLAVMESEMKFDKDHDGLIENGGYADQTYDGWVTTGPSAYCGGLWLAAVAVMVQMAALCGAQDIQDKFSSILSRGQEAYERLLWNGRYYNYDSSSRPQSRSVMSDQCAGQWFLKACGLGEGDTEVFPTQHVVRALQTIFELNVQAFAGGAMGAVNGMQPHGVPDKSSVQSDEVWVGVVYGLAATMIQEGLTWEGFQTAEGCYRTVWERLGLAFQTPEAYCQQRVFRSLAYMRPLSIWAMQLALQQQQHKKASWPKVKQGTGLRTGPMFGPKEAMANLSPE
Protocol: (§1) Enzyme activity assays: All assays were performed with lysates of HEK293T cells or zebrafish larvae in 96‐well plates at 37 °C. Samples were diluted with McIlvaine buffer (150 mM citric acid‐Na2HPO4) to a final volume of 25 μL, at pH appropriate for each enzyme. Assays were performed by incubating the samples with 100 μL 4‐methylumbelliferyl‐β‐D‐glucoside substrates diluted in McIlvaine buffer (with 0.1 % (w/v) bovine serum albumin (BSA)) for a period of 30 min or 3 h. The substrate mixtures used for each enzyme were as follows: GBA, 3.75 mM 4‐MU‐β‐D‐glucopyranoside (Glycosynth, Warrington Cheshire, UK) at pH 5.2, supplemented with 0.2 % (w/v) sodium taurocholate, 0.1 % (v/v) Triton X‐100, 0.1 % (w/v) bovine serum albumin (BSA); GBA2, 3.75 mM 4 MU‐β‐D‐glucopyranoside at pH 5.8; GBA3, 3.75 mM 4‐MU‐β‐D‐glucopyranoside at pH 6.0. After stopping the enzyme reaction with 200 μL 1 M NaOH‐glycine (pH 10.3), 4‐methylumbelliferone fluorescence was measured with a fluorimeter LS55 (Perkin Elmer, Waltham, MA, USA) with λEX 366 nm and λEM 445 nm. Enzyme activities were determined by subtraction of background (measured for incubations without enzyme). IC50 values were determined exactly as earlier described.[36]
The IC50 values were determined using a fluorogenic enzymatic assay. For GBA, 3.16 ng (53 fmol) of rhGBA, (recombinant human GBA, Imiglucerase) obtained from Sanofi Genzyme (Cambridge, MA, USA), was prepared in 12.5 μL McIlvaine buffer (150 mM, pH 5.2) supplemented with 0.1 % (v/v) Triton X‐100, and 0.2 % (w/v) sodium taurocholate, 0.1 % (w/v) bovine serum albumin (BSA). […] In the case of GBA2 or GBA3, lysates of GBA/GBA2 KO HEK293T cells overexpressing GBA2 or GBA3, respectively where used. The enzymatic activity of GBA, GBA2 and GBA3 were measured with 4MU‐β‐D‐glucoside substrate as described above.

GBA3 = target: T2, GBA3 (Homo sapiens, UniProt Q9H227); assay: Fluorogenic substrate enzymatic assay, lysate of GBA/GBA2 KO HEK293T cells overexpressing GBA3; type: biochemical; conditions: for (Ratio) GBA3/GBA: IC50 ratio
T2 construct: expressed in transfected cells; host or cells: HEK293T (GBA/GBA2 KO background for the fluorogenic assay; endogenous-GBA background with GBA2 and GBA3 overexpressed for ABPP and intact-cell assays)
T2 sequence (Q9H227 1-469): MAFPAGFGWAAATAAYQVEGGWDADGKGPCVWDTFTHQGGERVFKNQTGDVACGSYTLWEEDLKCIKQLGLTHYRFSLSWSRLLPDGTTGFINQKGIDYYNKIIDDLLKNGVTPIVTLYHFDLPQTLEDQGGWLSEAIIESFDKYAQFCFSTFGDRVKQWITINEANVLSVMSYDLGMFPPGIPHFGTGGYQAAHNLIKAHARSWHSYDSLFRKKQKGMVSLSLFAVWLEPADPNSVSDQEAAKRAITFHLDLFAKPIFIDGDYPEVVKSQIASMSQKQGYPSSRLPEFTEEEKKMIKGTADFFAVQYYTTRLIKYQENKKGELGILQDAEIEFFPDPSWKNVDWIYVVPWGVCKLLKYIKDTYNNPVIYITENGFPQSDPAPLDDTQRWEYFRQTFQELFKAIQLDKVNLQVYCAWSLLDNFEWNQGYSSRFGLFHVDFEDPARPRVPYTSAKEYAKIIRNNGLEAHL
Protocol: Using fluorogenic substrate‐based assays, we determined apparent IC50 values at 30 min incubation time of the xylo‐cyclophellitols in rhGBA, and GBA2 and GBA3 lysates of cells expressing only each of the enzymes specifically.
as §1
The IC50 values were determined using a fluorogenic enzymatic assay. For GBA, 3.16 ng (53 fmol) of rhGBA, (recombinant human GBA, Imiglucerase) obtained from Sanofi Genzyme (Cambridge, MA, USA), was prepared in 12.5 μL McIlvaine buffer (150 mM, pH 5.2) supplemented with 0.1 % (v/v) Triton X‐100, and 0.2 % (w/v) sodium taurocholate, 0.1 % (w/v) bovine serum albumin (BSA). The enzyme was incubated with 12.5 μL of inhibitors diluted in McIlvaine buffer (150 mM, pH 5.2) at 37 °C for 30 min. In the case of GBA2 or GBA3, lysates of GBA/GBA2 KO HEK293T cells overexpressing GBA2 or GBA3, respectively where used. The enzymatic activity of GBA, GBA2 and GBA3 were measured with 4MU‐β‐D‐glucoside substrate as described above.

[1] = incubation time 30 min, enzymatic assay, ±SD, n=3, read-out: In vitro apparent IC50 GBA2
[2] = incubation time 30 min, enzymatic assay, ±SD, n=3, read-out: In vitro apparent IC50 GBA3
[3] = 30 min incubation time, read-out: apparent IC50 GBA2
[4] = enzymatic assay performed for 3 h, n=3, read-out: In vitro apparent IC50 GBA2, 3 h

Row | IC50 (GBA3; 30 min incubation time, read-out: apparent IC50 GBA3) [µM] | Structure (SMILES) | (Ratio) GBA2/GBA (GBA2; in vitro, 30 min) | IC50 (GBA2; [1]) [µM] | (Ratio) GBA3/GBA (GBA3; in vitro, 30 min) | IC50 (GBA3; [2]) [µM] | IC50 (GBA2; [3]) [µM] | increase in GBA:GBA2 selectivity window compared to the conduritol analogue (13 or 14) (GBA2; in vitro 3 h) | GBA2/GBA ratio, 3 h (GBA2; in vitro 3 h) | IC50 (GBA2; [4]) [µM] | increase in inhibitory activity towards GBA2 of aziridines relative to epoxide analogues (GBA2; in vitro 3 h) | potency against GBA2 compared to 2 (GBA2; in vitro, 30 min) | potency against GBA3 compared to unsubstituted xylo-cyclophellitol aziridine 2 (GBA3; in vitro, 30 min) [fold]
1 |  | CN1/C(=C/C=C/C=C/C2=[N+](CCCCCC(=O)NCc3cn(CCCCCCCCN4[C@H]5[C@H](O)[C@@H](O)[C@H](O)C[C@H]54)nn3)c3ccccc3C2(C)C)C(C)(C)c2ccccc21 (stereo partly drawn) [ABP 6] | 84 | 0.544 ± 0.11 | 1561 | 10.1 ± 1 |  |  |  |  |  |  | 
2 |  | CN1/C(=C/C=C/C=C/C2=[N+](CCCCCC(=O)NCc3cn(C[C@@H]4[C@@H](O)[C@H](O)[C@@H](O)[C@@H]5O[C@H]45)nn3)c3ccccc3C2(C)C)C(C)(C)c2ccccc21 [ABP 9, reference compound] | > 111 |  | 128 | 5.78 ± 0.079 |  |  |  |  |  |  | 
3 | > 25 | O[C@@H]1[C@@H](O)[C@H](O)C[C@H]2O[C@@H]12 [compound 1, xylo‐cyclophellitol] | >19 | > 50 | >19 | > 50 | > 25 | seven‐fold increase | 272 | 122 ± 30.2 |  |  | 
4 |  | O[C@@H]1[C@@H](O)[C@H](O)C[C@H]2N[C@@H]12 [compound 2, β‐D‐xylo‐Cyclophellitol aziridine] | 44 | 31.6 ± 0.926 | >35 | > 25 | > 25 | three‐fold increase | 22 | 5.31 ± 0.12 | 10–20 fold |  | 
5 |  | OC[C@@H]1[C@@H](O)[C@H](O)[C@@H](O)[C@@H]2O[C@H]12 [compound 3, cyclophellitol] | 0.4 | 0.148 ± 0.00751 | 129 | 51.5 ± 4.01 |  |  |  |  |  |  | 
6 |  | OC[C@@H]1[C@@H](O)[C@H](O)[C@@H](O)[C@@H]2N[C@H]12 [compound 4, cyclophellitol aziridine, reference compound] | 0.8 | 0.279 ± 0.0445 | 99 | 33.8 ± 2.43 |  |  |  |  |  |  | 
7 |  | [N-]=[N+]=NCCCCCCCCN1[C@H]2[C@H](O)[C@@H](O)[C@H](O)C[C@H]21 (stereo partly drawn) [compound 5] | 5317 | 6.38 ± 1.15 | 486 | 0.583 ± 0.202 |  |  |  |  |  | five‐fold higher | > 40
